Measurements published in patent US12227534B2, “Method for preparing nicotinamide mononucleotide by using nicotinamide as raw material” (BONTAC BIO-ENGINEERING(SHENZHEN) CO., LTD., priority 2020, dated 2025).

Legend:
[1] = Long-term stability of nicotinamide ribose solution after pH adjustment with hydrochloric acid; format: physicochemical; conditions: storage temperature 0-4° C., storage time 45 days
Excerpt: (§1) The results of various parameters in the preparation of the intermediate product nicotinamide ribose solution are shown in Table 1 to Table 5.

[2] = Long-term stability of nicotinamide ribose solution after pH adjustment with sodium bicarbonate; format: physicochemical; conditions: 2-4° C., storage time 45 days
Excerpt: as §1

Substance: nicotinamide ribose [nicotinamide ribose solution]
- Stability (degradation) ([1]; pH 4 (hydrochloric acid)): 1.3%
- Stability (degradation) ([1]; pH 5 (hydrochloric acid)): 2.1%
- Stability (degradation) ([2]; pH 4 (sodium bicarbonate)): 2.4%
- Stability (degradation) ([2]; pH 5 (sodium bicarbonate)): 3.7%
